The values that follow are results of earlier work, collected in patent publication US20030190375A1, “Therapeutical use of sophora flavescens or sophora subprostrata extracts” (priority 2000, published 2003).

The conditions of data set [1]: Huang, The Pharmacology of Chinese Herbs, 1993.
The test system of another data set is Ishikawa-Var-I cells. As to conditions: Milligan et al 1999.

Take `O=C1CCC[C@@H]2[C@H]3CCC[N+]4([O-])CCC[C@@H](CN12)[C@@H]34` (some centres unmarked) [oxymatrine]: the “toxic effects in animal studies” value in data set [1] is recorded as “toxic effects could be shown”.
For the compound `CC(C)=CCc1c(O)cc(O)c2c1O[C@H](c1ccc(O)cc1)CC2=O` [8-prenylnaringenine], the “oestrogenic potency in vitro (stimulation of alkaline phosphatase)” value with Ishikawa-Var-I cells is “significantly more active than the long-familiar phyto-oestrogens such as cumesterol, genistone or daidzin, and produced only a slightly weaker effect than 17β oestradiol”.
